For data set [1], the target named is T1, huCMKLR1 (Homo sapiens, UniProt Q99788).
T1 sequence (Q99788 1-373): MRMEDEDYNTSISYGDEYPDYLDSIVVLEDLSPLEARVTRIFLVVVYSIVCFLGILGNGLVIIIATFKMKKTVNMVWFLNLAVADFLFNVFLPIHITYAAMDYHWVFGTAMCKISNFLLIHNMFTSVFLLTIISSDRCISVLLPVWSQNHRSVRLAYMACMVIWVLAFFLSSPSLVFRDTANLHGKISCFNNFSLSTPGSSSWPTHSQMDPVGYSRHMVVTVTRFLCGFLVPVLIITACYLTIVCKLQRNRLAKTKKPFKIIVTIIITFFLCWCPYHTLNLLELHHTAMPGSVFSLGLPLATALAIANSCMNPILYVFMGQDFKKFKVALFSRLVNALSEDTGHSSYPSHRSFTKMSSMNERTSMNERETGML
In words: β-arrestin2 (β-ARR2) enzymatic complementation assay, CMKLR1/CHO cells. Format: cell-based. On the set-up: host or cells: CHO. The conditions noted are these: for IC50: mean±SEM, n = 3-14 independent experiments, read-out: IC50 (µM), β-arrestin, huCMKLR1. From the text: The engagement of a chemoattractant receptor by its cognate ligand stimulates the recruitment of β-arrestin to the carboxyl-terminus of the receptor, an event that results in receptor internalization and termination of G protein-mediated signaling. […] To test this, we used an enzymatic complementation assay (the β-ARR2 assay), whereby the complementary fragments from the β-gal active site are fused to the carboxyl-terminus of CMKLR1 and β-arrestin2. The special association of these molecules leads to enzyme activity, which is detected by a chemiluminescent substrate.

Data set [2] addresses T1, huCMKLR1. In words: Transwell chemotaxis of huCMKLR1/L1.2 transfectants to chemerin.
Another data set has as its target T2, mCMKLR1 (Mus musculus, UniProt P97468).
T2 sequence (P97468 1-371): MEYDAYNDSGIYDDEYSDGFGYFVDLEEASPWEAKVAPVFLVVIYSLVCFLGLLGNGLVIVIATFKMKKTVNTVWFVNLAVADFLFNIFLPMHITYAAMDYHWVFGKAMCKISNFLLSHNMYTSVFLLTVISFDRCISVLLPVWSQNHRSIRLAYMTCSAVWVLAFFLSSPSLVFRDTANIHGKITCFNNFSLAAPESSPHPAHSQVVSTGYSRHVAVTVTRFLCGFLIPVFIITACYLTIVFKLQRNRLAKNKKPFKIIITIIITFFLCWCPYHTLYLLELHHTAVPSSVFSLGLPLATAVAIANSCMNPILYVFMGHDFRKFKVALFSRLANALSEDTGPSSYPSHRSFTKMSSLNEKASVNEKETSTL
Put plainly: Transwell chemotaxis of mCMKLR1/L1.2 transfectants to chemerin.

The conditions of data set [3]: literature statement; cited from earlier work.
Data set [4] concerns Choline acetyltransferase. The settings on record: cited from earlier work.

Structures can show the parent of a compound that is named as a salt.

Consider `c1ccc2ccccc2c1` [naphthalene, reference compound], for which the figures for the IC50 on huCMKLR1 [1], against huCMKLR1 [2] and at mCMKLR1 were above 10 µM, above 100 µM and above 100 µM, respectively. For the same compound, the “inhibitory activity in the in vitro assays” value on huCMKLR1 [1] (β-ARR2 and transwell migration assays) is on record as “no inhibitory activity”.
Regarding `COC(=O)/C=C/C(=O)O` [monomethyl fumarate], in data set [3], the “bound by serum proteins” value is 30%.
As to `CN(C)CCC(=O)c1cccc2ccccc12` [α-NEDA, 2-(α-naphthoyl)ethyldimethylamine], the “fold less potent than α-NETA” value at huCMKLR1 [1] (chemerin-stimulated β-ARR2 association with CMKLR1 or CMKLR1+ cell migration) is 10–20 fold. The 50% inhibitory concentration (IC50) was 7.5 ± 0.74 µM on huCMKLR1 [1], 77 ± 23 µM on huCMKLR1 [2] and 78 ± 22 µM against mCMKLR1. The “fold less potent than α-NETA in inhibiting ChAT enzyme activity” value in data set [4] was 7 fold.

A word on the IC50: it is the concentration that gives 50% inhibition.

Values taken from PMC4249827, “A Novel CMKLR1 Small Molecule Antagonist Suppresses CNS Autoimmune Inflammatory Disease” (PLoS ONE, 2014).
